As usually defined, the mortality is the percentage killed.

Holding throughout (type): functional
For experiment [1], the system named is Paramphistomum. The experiment can be described thus: Anthelmintic activity against Paramphistomum assessed as mortality at 40 ug/ml after 2 hrs relative to control.
Experiment [2] concerns Paramphistomum. The experiment is described as follows: Anthelmintic activity against Paramphistomum assessed as mortality at 80 ug/ml after 2 hrs relative to control.
In experiment [3] the test system is Paramphistomum. The experiment can be described thus: Anthelmintic activity against Paramphistomum assessed as mortality at 40 ug/ml after 6 hrs relative to control.
Experiment [4] concerns Paramphistomum. The experiment can be described thus: Anthelmintic activity against Paramphistomum assessed as mortality at 40 ug/ml after 1 hr relative to control.
The subject of experiment [5] is Paramphistomum. The experiment can be described thus: Anthelmintic activity against Paramphistomum assessed as mortality at 80 ug/ml after 1 hr relative to control.
Experiment [6] deals with Paramphistomum. The experiment is described as follows: Anthelmintic activity against Paramphistomum assessed as mortality at 40 ug/ml after 4 hrs relative to control.
The subject of experiment [7] is Paramphistomum. The experiment is described as follows: Anthelmintic activity against Paramphistomum assessed as mortality at 80 ug/ml after 6 hrs relative to control.
The subject of experiment [8] is Paramphistomum. The experiment can be described thus: Anthelmintic activity against Paramphistomum assessed as mortality at 80 ug/ml after 4 hrs relative to control.

Consider `CCSc1nnc(COc2ccc3nc(NC(=O)OC)sc3c2)o1`, for which the mortality at 40 µg/mL turned out to be 40% in the experiment on Paramphistomum [1], 80% in the experiment on Paramphistomum [3], 10% with Paramphistomum [4] and 50% with Paramphistomum [6]. Moreover, the mortality at 80 µg/mL with Paramphistomum [2] amounted to 60%; in the experiment with Paramphistomum [5] it was 20%; with Paramphistomum [7], 80%; with Paramphistomum [8], 60%.
Consider `COC(=O)Nc1nc2ccc(OCc3nnc(SCC(=O)c4ccc(Br)cc4)o3)cc2s1`, for which the mortality at 40 µg/mL in the experiment on Paramphistomum [1] worked out at 40%; in the experiment on Paramphistomum [3], 60%; in the experiment on Paramphistomum [4], 20%; with Paramphistomum [6], 60%. Besides, the mortality at 80 µg/mL with Paramphistomum [2] was 100%; with Paramphistomum [5], 60%.
`COC(=O)Nc1nc2ccc(OCc3nnc(SCc4ccccc4)o3)cc2s1`: the mortality at 40 µg/mL in the experiment on Paramphistomum [1] was 30%; in the experiment with Paramphistomum [3] it was 60%; in the experiment with Paramphistomum [4], 30%; with Paramphistomum [6], 50%. For the same compound, the mortality at 80 µg/mL in the experiment with Paramphistomum [2] was determined as 60%; in the experiment on Paramphistomum [5] it was 30%; with Paramphistomum [7], 100%; in the experiment on Paramphistomum [8], 90%.
In the case of `COC(=O)Nc1nc2ccc(OCc3nnc(S)n3-c3ccccc3)cc2s1`, the mortality at 40 µg/mL in the experiment on Paramphistomum [1], in the experiment on Paramphistomum [3], with Paramphistomum [4] and with Paramphistomum [6] was 0% each time. In addition, the mortality at 80 µg/mL in the experiment with Paramphistomum [2], with Paramphistomum [5], in the experiment on Paramphistomum [7] and in the experiment on Paramphistomum [8] was 0% throughout.
For the compound `CCOC(=O)CSc1nnc(COc2ccc3nc(NC(=O)OC)sc3c2)o1`, the mortality at 40 µg/mL was determined as 20% in the experiment on Paramphistomum [1], 30% with Paramphistomum [3], 10% with Paramphistomum [4] and 30% in the experiment with Paramphistomum [6]. The mortality at 80 µg/mL in the experiment with Paramphistomum [2] came out at 30%; in the experiment on Paramphistomum [5], 20%; with Paramphistomum [7], 60%; in the experiment with Paramphistomum [8], 50%.
With `COC(=O)Nc1nc2ccc(OCc3nnc(SCC(=O)c4ccc(Cl)cc4)o3)cc2s1`, the mortality at 40 µg/mL in the experiment with Paramphistomum [1], in the experiment on Paramphistomum [3], in the experiment with Paramphistomum [4] and in the experiment on Paramphistomum [6] was 40% in each case. The values for the mortality at 80 µg/mL in the experiment with Paramphistomum [2], with Paramphistomum [5] and in the experiment on Paramphistomum [8] were 70%, 50% and 100%, respectively.
In the case of `COC(=O)Nc1nc2ccc(OCc3nnc(SC)o3)cc2s1`, the mortality at 40 µg/mL in the experiment on Paramphistomum [1] was 10%; in the experiment with Paramphistomum [3] it was 20%; with Paramphistomum [4], 10%; in the experiment on Paramphistomum [6], 20%. Further, the mortality at 80 µg/mL in the experiment on Paramphistomum [2] came out at 20%; in the experiment with Paramphistomum [5] it was 10%; in the experiment on Paramphistomum [7], 40%; in the experiment on Paramphistomum [8], 30%.
As to `COC(=O)Nc1nc2ccc(OCc3nnc(SC(=O)CCl)o3)cc2s1`, the mortality at 40 µg/mL stood at 10% with Paramphistomum [1], 20% in the experiment with Paramphistomum [3], 10% in the experiment on Paramphistomum [4] and 20% in the experiment with Paramphistomum [6]. The mortality at 80 µg/mL in the experiment with Paramphistomum [2] came to 30%; in the experiment with Paramphistomum [5], 10%; in the experiment on Paramphistomum [7], 50%; in the experiment on Paramphistomum [8], 30%.
On to `COC(=O)Nc1nc2ccc(OCc3nnc(S)n3-c3ccc(C)cc3)cc2s1`, for which the mortality at 40 µg/mL in the experiment with Paramphistomum [1], in the experiment on Paramphistomum [3], with Paramphistomum [4] and in the experiment with Paramphistomum [6] was 0% in each case. Further, the mortality at 80 µg/mL in the experiment with Paramphistomum [2], in the experiment on Paramphistomum [5], in the experiment on Paramphistomum [7] and in the experiment on Paramphistomum [8] was 0% in each case.
As to `COC(=O)Nc1nc2ccc(OCc3nnc(S)n3-c3ccc(Cl)cc3)cc2s1`, the mortality at 40 µg/mL turned out to be 20% with Paramphistomum [1], 50% with Paramphistomum [3], 10% in the experiment on Paramphistomum [4] and 30% with Paramphistomum [6]. Moreover, the mortality at 80 µg/mL amounted to 20% in the experiment on Paramphistomum [2], 20% with Paramphistomum [5], 80% in the experiment with Paramphistomum [7] and 50% in the experiment on Paramphistomum [8].
Consider `C=CCSc1nnc(COc2ccc3nc(NC(=O)OC)sc3c2)o1`, for which the mortality at 40 µg/mL in the experiment on Paramphistomum [1] turned out to be 30%; with Paramphistomum [3], 70%; with Paramphistomum [4], 20%; with Paramphistomum [6], 50%. Moreover, the mortality at 80 µg/mL in the experiment on Paramphistomum [2] came out at 40%; in the experiment on Paramphistomum [5], 20%; in the experiment on Paramphistomum [8], 100%.
With `COC(=O)Nc1nc2ccc(OCc3nnc(SCC(=O)c4ccccc4)o3)cc2s1`, the mortality at 40 µg/mL is 20% in the experiment with Paramphistomum [1], 30% in the experiment on Paramphistomum [3], 10% in the experiment with Paramphistomum [4] and 20% with Paramphistomum [6]. Besides, the mortality at 80 µg/mL with Paramphistomum [2] stood at 40%; in the experiment on Paramphistomum [5] it was 30%; in the experiment on Paramphistomum [7], 70%; in the experiment on Paramphistomum [8] it was 50%.
Take `O=C(Nc1cc(Cl)cc(Cl)c1O)c1c(O)c(Cl)cc(Cl)c1Cl` [OXYCLOZANIDE]: the mortality at 40 µg/mL came to 70% in the experiment on Paramphistomum [1], 30% in the experiment with Paramphistomum [4] and 100% in the experiment on Paramphistomum [6]. In addition, the figures for the mortality at 80 µg/mL with Paramphistomum [2] and in the experiment with Paramphistomum [5] were 100% and 50%, respectively.

The values above are taken from ChEMBL document CHEMBL4261525, “Design, facile synthesis and anthelmintic activity of new O-substituted 6-methoxybenzothiazole-2-carbamates. Part II” (2017).
